The source of these data is PubChem BioAssay (NCI).

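These data come from cells grown in 96-well plates and exposed to compound for 48 hours at five concentrations. Here, GI50 denotes the concentration required for 50% inhibition of growth. At the TGI there is no net growth.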 Bounds are passed on as bounds.

Some test systems named below: CCRF-CEM leukemia; A549 NSCLC; HOP-92 NSCLC; LOX IMVI melanoma; DU-145 prostate; UO-31 renal; MALME-3M melanoma; IGROV1 ovarian; CAKI-1 renal; UACC-62 melanoma.
Common to all, as to test: DTP human tumour cell line panel, 48 h

Take `O=C(CCc1ccc(O)cc1)N/N=C/c1cc(Br)ccc1O`: the GI50 in the assay with CCRF-CEM leukemia was 2.5 µM; in the assay with A549 NSCLC, 4.03 µM; in the assay with HOP-92 NSCLC, 4.9 µM; with LOX IMVI melanoma it was 2.07 µM; in the assay on DU-145 prostate it was 3.4 µM; in the assay with UO-31 renal, 1.34 µM. For the same compound, the GI50 is 4.01 µM in the assay on MALME-3M melanoma, 6.23 µM in the assay with IGROV1 ovarian, 1.95 µM with CAKI-1 renal and 2.44 µM with UACC-62 melanoma. Further, the TGI in the assay with CCRF-CEM leukemia was 12.6 µM; in the assay with A549 NSCLC it was over 100 µM; with HOP-92 NSCLC, 49.3 µM; in the assay on LOX IMVI melanoma, 16.8 µM; in the assay with DU-145 prostate it was over 100 µM; with UO-31 renal it was 7.19 µM. Further, the TGI in the assay on MALME-3M melanoma was 28.3 µM; in the assay with IGROV1 ovarian, 93.3 µM; in the assay with CAKI-1 renal, 8.99 µM; with UACC-62 melanoma, 7.02 µM.

Take `Nc1ncc(-c2cccc(S(N)(=O)=O)c2)c2scc(-c3ccc(F)c(Cl)c3)c12`: the GI50 was 6.12 µM in the assay with CCRF-CEM leukemia; 6.76 µM in the assay on A549 NSCLC; 5.14 µM in the assay on HOP-92 NSCLC; 4.84 µM with LOX IMVI melanoma; 5.55 µM in the assay on DU-145 prostate; 2.22 µM in the assay on UO-31 renal. The GI50 is 6.94 µM in the assay on MALME-3M melanoma, 6.58 µM in the assay with IGROV1 ovarian, 5.51 µM in the assay on CAKI-1 renal and 5.17 µM in the assay with UACC-62 melanoma. Also, the TGI was over 22.2 µM with CCRF-CEM leukemia; over 25 µM in the assay on A549 NSCLC; 18.4 µM in the assay on HOP-92 NSCLC; 9.67 µM in the assay on LOX IMVI melanoma; 15.3 µM in the assay on DU-145 prostate; 21 µM in the assay on UO-31 renal. Also, the concentration for total growth inhibition (TGI) in the assay on MALME-3M melanoma was determined as 16.6 µM; in the assay on IGROV1 ovarian it was 22.3 µM; in the assay with CAKI-1 renal it was 21.4 µM; with UACC-62 melanoma it was 11.7 µM.

For the compound `CC(O)c1cc(C(=O)N[C@@H](C)Cn2ccc(-c3ccc(C#N)c(Cl)c3)n2)n[nH]1` (some centres undefined), the GI50 is 16.8 µM with CCRF-CEM leukemia; 85.4 µM in the assay on A549 NSCLC; 26.5 µM in the assay on HOP-92 NSCLC; 87.2 µM in the assay on LOX IMVI melanoma; over 100 µM in the assay on DU-145 prostate; 35.1 µM in the assay on UO-31 renal. Moreover, the GI50 with MALME-3M melanoma is 42.5 µM; in the assay on IGROV1 ovarian, 78.8 µM; in the assay on CAKI-1 renal, 44.9 µM; in the assay on UACC-62 melanoma, 34.3 µM. Besides, the TGI with CCRF-CEM leukemia was 39.9 µM; in the assay on A549 NSCLC, over 100 µM; in the assay with HOP-92 NSCLC it was over 100 µM; with LOX IMVI melanoma it was over 100 µM; with DU-145 prostate it was over 100 µM; in the assay with UO-31 renal, over 100 µM. The TGI in the assay with MALME-3M melanoma, in the assay with IGROV1 ovarian, with CAKI-1 renal and with UACC-62 melanoma was over 100 µM throughout.

Take `COc1cccc2c1n([O-])c1cccc(OC)c1[n+]2=O`: the GI50 was 3.49 µM in the assay on CCRF-CEM leukemia; 7.78 µM in the assay on A549 NSCLC; 16.3 µM in the assay with HOP-92 NSCLC; 5.19 µM in the assay with LOX IMVI melanoma; 7.97 µM with DU-145 prostate; 6.7 µM in the assay with UO-31 renal. For the same compound, the GI50 in the assay on MALME-3M melanoma was 8.05 µM; with IGROV1 ovarian, 4.8 µM; in the assay with CAKI-1 renal, 3.97 µM; in the assay on UACC-62 melanoma, 9.22 µM. Further, the concentration for total growth inhibition (TGI) in the assay on CCRF-CEM leukemia was 35.7 µM; with A549 NSCLC, over 100 µM; in the assay on HOP-92 NSCLC it was over 100 µM; in the assay on LOX IMVI melanoma, 27.2 µM; in the assay with DU-145 prostate, over 100 µM; in the assay on UO-31 renal, 32.7 µM. Besides, the total growth inhibition concentration (TGI) came to 25.7 µM in the assay on MALME-3M melanoma, 66.1 µM in the assay on IGROV1 ovarian, 76.5 µM in the assay on CAKI-1 renal and 27.4 µM in the assay on UACC-62 melanoma.

In the case of `CC(=O)c1cc(O)c2ccccc2c1O`, the GI50 in the assay on CCRF-CEM leukemia was 19.2 µM; in the assay on A549 NSCLC, 37.1 µM; in the assay with HOP-92 NSCLC, 16.6 µM; in the assay on LOX IMVI melanoma, 14.8 µM; in the assay on DU-145 prostate it was 18.9 µM; in the assay on UO-31 renal it was 12.1 µM. Moreover, the GI50 with MALME-3M melanoma is 18.2 µM; with IGROV1 ovarian, 13 µM; in the assay with CAKI-1 renal, 15.5 µM; with UACC-62 melanoma it was 16.2 µM. Also, the TGI in the assay with CCRF-CEM leukemia was over 100 µM; with A549 NSCLC, over 100 µM; in the assay on HOP-92 NSCLC, 31 µM; with LOX IMVI melanoma it was 39.3 µM; in the assay with DU-145 prostate, 33 µM; in the assay with UO-31 renal, 25.5 µM. In addition, the TGI was 34.2 µM in the assay on MALME-3M melanoma, 29.3 µM in the assay on IGROV1 ovarian, 30.2 µM in the assay with CAKI-1 renal and 32.7 µM with UACC-62 melanoma.

For `CCN(Cc1c(Cl)cccc1Cl)c1ccc(CO)c(Cl)c1`, the GI50 is 15 µM in the assay on CCRF-CEM leukemia; 3.35 µM in the assay with A549 NSCLC; 0.606 µM in the assay with HOP-92 NSCLC; 16.9 µM with LOX IMVI melanoma; 14.4 µM in the assay on DU-145 prostate; 12.6 µM in the assay on UO-31 renal. In addition, the GI50 in the assay on MALME-3M melanoma is 12.6 µM; in the assay with IGROV1 ovarian, under 0.0253 µM; in the assay with CAKI-1 renal it was 4.23 µM; in the assay with UACC-62 melanoma, 0.0406 µM. Moreover, the concentration for total growth inhibition (TGI) came out at 36.6 µM with CCRF-CEM leukemia; 20.6 µM in the assay with A549 NSCLC; 9.64 µM in the assay with HOP-92 NSCLC; 32.6 µM in the assay on LOX IMVI melanoma; 27.9 µM in the assay with DU-145 prostate; 26.2 µM with UO-31 renal. In addition, the TGI with MALME-3M melanoma worked out at 27.2 µM; with CAKI-1 renal, 21.9 µM; in the assay on UACC-62 melanoma, 0.741 µM.

As for `O=C1OCC2=C1C(c1ccccc1)c1cc3c(cc1N2CCO)OCCO3` (centres undefined), the 50% growth inhibitory concentration (GI50) in the assay on CCRF-CEM leukemia was 0.276 µM; in the assay with A549 NSCLC it was 0.62 µM; in the assay on LOX IMVI melanoma, 0.36 µM; in the assay on DU-145 prostate, 0.304 µM; with UO-31 renal, 0.3 µM; in the assay on MALME-3M melanoma it was over 50 µM. Further, the results for the GI50 in the assay on IGROV1 ovarian and with CAKI-1 renal were 0.161 µM and 0.293 µM, respectively. The concentration for total growth inhibition (TGI) was over 50 µM with CCRF-CEM leukemia; over 40.1 µM with A549 NSCLC; over 50 µM in the assay on LOX IMVI melanoma; 2.73 µM in the assay on DU-145 prostate; over 35.3 µM in the assay with UO-31 renal; over 50 µM in the assay with MALME-3M melanoma. The TGI with IGROV1 ovarian is 1.41 µM; in the assay with CAKI-1 renal it was over 30.3 µM; in the assay on UACC-62 melanoma it was over 50 µM.

As to `NC(=S)NN=C1CSSC1`, the GI50 with CCRF-CEM leukemia was 3.77 µM; in the assay on A549 NSCLC, 2.26 µM; with HOP-92 NSCLC, 2.35 µM; with DU-145 prostate, 4.12 µM; in the assay on UO-31 renal it was 1.83 µM; with MALME-3M melanoma, 3.67 µM. Besides, the GI50 is 5 µM in the assay with IGROV1 ovarian, 3.61 µM in the assay on CAKI-1 renal and 3.21 µM with UACC-62 melanoma. Moreover, the TGI with CCRF-CEM leukemia is over 100 µM; with A549 NSCLC, 12.1 µM; in the assay on HOP-92 NSCLC, 5.89 µM; in the assay on DU-145 prostate, 16.2 µM; in the assay with UO-31 renal, 20.1 µM; with MALME-3M melanoma, 28.8 µM. In addition, the TGI was 63.1 µM with IGROV1 ovarian, 40.3 µM in the assay on CAKI-1 renal and 17.2 µM in the assay with UACC-62 melanoma.

As usually defined, the GI50 is the concentration giving 50% growth inhibition. By TGI is commonly meant the concentration giving total growth inhibition.
